Columns and labels:
[1] = tested on: p53 phosphorylation at ser20 and acetylation at lys382; experiment: Western blot of p53 phosphorylation and acetylation (DNA damage signaling); format: cell-based, human; conditions: 16 h; for p53 acetylation at lys382: HCT116/p53(+/+) cells; for p53 phosphorylation at ser20: HCT116/p53(+/+)/PG13 and SW480 cells
Procedure: FIGS. 7A-7C show: p53 levels and posttranslational modifications after treatment by selected compounds. (A) HCT116/p53(+/+) cells were treated with adriamycin, compounds nos. 1, 14, 17, and 23 for 16 h, and p53 and acetylated p53 levels were detected by Western blot. Nonspecific bands (Lower) serve as a loading control. (B) HCT116/p53(+/+)/PG13 cells were treated with adriamycin or compounds as indicated for 16 h and p53, phosphorylated p53 (ser20) levels and firefly luciferase protein expression were detected by Western blot. (C) SW480 cells were treated with compounds as indicated for 16 h, and p53 and phosphorylated p53 (ser20) levels were detected by Western blot. CP, CP-31398;
(§1) Cells were collected and protein concentration was quantified by the Bio-Rad protein assay prior to SDS-PAGE. Proteins were transferred to a PVDF membrane (Immobilon-P, Millipore Corporation, Bedford, Mass.) by a semi-dry transfer apparatus (Bio-Rad Laboratories, Hercules, Calif.). The membranes with transferred proteins were blotted with 10% W/V non-fat dry milk and then incubated with the primary antibody and subsequently secondary antibodies, which were labelled by horseradish peroxidase, or infrared dyes (IR). Signals were visualized by either ECL (Amersham Pharmacia Biotech, England, UK) and exposed to an X-ray film, or scanned by the Odyssey Infared Imaging System (LI-COR Biosciences, Lincoln, Nebr.). Anti-p53, DO-1, was from Santa Cruz biotechnology, Inc. (Santa Cruz, Calif.), anti-p73 (AB-1) and anti-p21 (AB-1) were obtained from Calbiochem (San Diego, Calif.). Anti-ser20 of p53 Cell were obtained from Signaling Technology (Danvers, Mass.) and anti-DR5 antibody was obtained from Cayman Chemical (Ann Arbor, Mich.).
In order to determine whether DNA damage signaling is involved in the mechanism of action of selected compounds, Western blot was used to test the status of phosphorylation and acetylation of p53, which are sensitive indicators of DNA damage.

[2] = tested on: p73 in HCT116/p53(−/−) cells; experiment: Western blot of p73 protein in HCT116/p53(-/-) cells; format: cell-based, human; conditions: FIG. 3F
Procedure: FIGS. 3A-3F show: Structures (A) of isolated compounds and summary of their effects on the p53 family and transcriptional targets (B). Cell cycle profiles of HCT/p53(+/+) and HCT/p53(−/−) in response to treatment by selected compounds (C-E). The dose of #17 was 200 μM and for #23 it was 10 μM. F, p73 protein levels were elevated in HCT116/p53(−/−) cells in response to treatment by selected compounds at various concentrations as indicated;
as §1
The questioned whether the p53 family member p73 is involved in the p53-responsive transcriptional activity induced by the compounds identified was then tested. p63, the other p53 family member, was not tested, because the TA form of p63 is rarely expressed in malignant and normal tissues except for germ cells of the ovary and testis.

Compound	p53 acetylation at lys382 [1]	p53 phosphorylation at ser20 [1]	p73 protein expression [2]
COc1cccc2c1C(=O)c1c(O)c3c(c(O)c1C2=O)CC(O)(/C(C)=N/O)CC3OC1CC(N)C(O)C(C)O1 (stereo not drawn) [#14]	strong inducers	strong inducers of p53 phosphorylation at ser20	strong inducers of p73
COc1cccc2c1C(=N)c1c(O)c3c(c(O)c1C2=O)C[C@@](O)(C(C)=O)C[C@@H]3O[C@H]1C[C@H](N)[C@H](O)[C@H](C)O1 [#23]	strong inducers	strong inducers of p53 phosphorylation at ser20	strong inducers of p73

Reference: US20160151403A1, “SMALL MOLECULE MODULATORS OF P53 FAMILY SIGNALING” (The Trustees of the University of Pennsylvania, priority 2006, published 2016)
